Test results from publication PMC7611204 (Molecular cancer therapeutics, 2020).

How the values were obtained:
[1] = target: T1, phosphoglycerate dehydrogenase (PHGDH) (Homo sapiens, UniProt O43175)
T1 sequence (O43175 2-533): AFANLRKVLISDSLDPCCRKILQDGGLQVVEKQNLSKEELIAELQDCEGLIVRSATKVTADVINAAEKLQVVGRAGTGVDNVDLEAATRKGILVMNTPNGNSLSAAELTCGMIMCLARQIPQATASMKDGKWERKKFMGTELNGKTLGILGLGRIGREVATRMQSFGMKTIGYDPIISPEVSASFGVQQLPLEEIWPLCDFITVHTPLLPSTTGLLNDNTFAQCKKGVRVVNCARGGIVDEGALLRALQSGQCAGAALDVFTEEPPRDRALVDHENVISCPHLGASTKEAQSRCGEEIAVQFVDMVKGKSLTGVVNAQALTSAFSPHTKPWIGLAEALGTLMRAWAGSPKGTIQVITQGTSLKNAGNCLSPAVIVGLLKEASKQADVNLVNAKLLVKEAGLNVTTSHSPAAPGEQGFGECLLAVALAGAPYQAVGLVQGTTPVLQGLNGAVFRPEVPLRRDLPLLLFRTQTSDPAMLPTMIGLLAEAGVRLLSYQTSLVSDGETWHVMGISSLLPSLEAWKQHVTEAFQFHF

[2] = target: T2, serine hydroxymethyltransferase 2 (SHMT2) (Homo sapiens, UniProt P34897); experiment: microscale thermophoresis with labeled recombinant human SHMT2; assay type: binding
T2 sequence (P34897 30-504): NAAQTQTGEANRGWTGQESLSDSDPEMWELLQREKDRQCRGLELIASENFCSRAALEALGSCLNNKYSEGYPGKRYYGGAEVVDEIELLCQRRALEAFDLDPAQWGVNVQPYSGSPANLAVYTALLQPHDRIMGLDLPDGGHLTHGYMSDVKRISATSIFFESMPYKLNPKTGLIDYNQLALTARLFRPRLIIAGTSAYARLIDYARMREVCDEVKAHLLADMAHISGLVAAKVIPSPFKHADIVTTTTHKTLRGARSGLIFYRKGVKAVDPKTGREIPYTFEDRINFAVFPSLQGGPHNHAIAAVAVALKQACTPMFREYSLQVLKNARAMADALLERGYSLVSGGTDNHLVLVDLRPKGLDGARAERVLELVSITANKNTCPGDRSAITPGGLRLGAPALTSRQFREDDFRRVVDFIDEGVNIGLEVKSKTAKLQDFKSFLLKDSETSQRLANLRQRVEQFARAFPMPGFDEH

Row | Structure (SMILES) | IC50 [1] | Kd [2]
1 | C[CH2][Hg][S]c1ccccc1C(=O)O [thimerosal] | 0.152 µM | 
2 | CN[C@H]1CC[C@@H](c2ccc(Cl)c(Cl)c2)c2ccccc21 [sertraline] |  | 13.1 µM
